Source: patent US5047534A (Merrell Dow Pharmaceuticals Inc., priority 1990, dated 1991)
Like-named read-outs stand apart in the source and are kept apart here.

How the values were obtained:
adenosine A-2 receptors = target: T1, adenosine A-2 receptors (Rattus norvegicus, UniProt P30543); experiment: Test for affinity for brain adenosine A-2 receptors ([3H]NECA displacement, striatal membranes); type: binding; conditions: read-out: A2 Ki
T1 construct: tissue Charles River (animals); host or cells: brain striatum membranes, young male rats (C-D strain)
Experimental: Membranes for ligand binding are isolated from rat brain striatum. The tissue is homogenized in 20 vol icecold 50 mM Tris-HCl buffer (pH 7.7) using a polytron (setting for 6 to 20 seconds). The homogenate is centrifuged at 50,000 x g for 10 minutes at 4° C. The pellet is again homogenized in a polytron in 20 vol of buffer, and centrifuged as before. The pellet is finally resuspended in 40 vol of 50mM Tris-HCl (pH 7.7) per gram of original wet weight of tissue.
Incubations are carried out at 25° C. for 60 minutes. Each tube is filtered through GF/B glass fiber filters using a vacuum. The filters are rinsed two times with 5 ml of the ice-cold buffer. […] The filters are counted by liquid scintillation spectrometry.
Specific binding of [3H]NECA is measured as the excess over blanks run in the presence of 100 μM 2-chloroadenosine. Total membrane-bound radioactivity is about 2.5% of that added to the test tubes. […] Specific binding to membranes is about 50% of the total bound.

Adenosine A-1 receptor [1] = target: T2, Adenosine A-1 receptor (Rattus norvegicus, UniProt P25099); experiment: biochemical
T2 sequence (P25099 1-326): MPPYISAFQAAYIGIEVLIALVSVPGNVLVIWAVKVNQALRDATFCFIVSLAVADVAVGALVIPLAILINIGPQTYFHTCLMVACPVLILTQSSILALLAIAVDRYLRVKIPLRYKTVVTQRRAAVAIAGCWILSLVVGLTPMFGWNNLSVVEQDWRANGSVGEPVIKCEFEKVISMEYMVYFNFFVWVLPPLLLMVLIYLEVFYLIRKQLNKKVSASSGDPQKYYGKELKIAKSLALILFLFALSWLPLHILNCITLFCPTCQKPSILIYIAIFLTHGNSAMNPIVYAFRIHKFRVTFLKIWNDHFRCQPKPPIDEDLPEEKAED

Adenosine A-1 receptor [2] = target: T2, Adenosine A-1 receptor; experiment: Test for affinity for brain adenosine A-1 receptor binding sites ([3H]cyclohexyladenosine displacement, whole brain membranes); conditions: ratio of A2 Ki to A1 Ki
Adenosine A-1 receptor [3] = target: T2, Adenosine A-1 receptor
A-1 receptors = conditions: read-out: Ki at the A-1 receptors in brain membranes; cited from earlier work

T1 sequence (P30543 whole entry): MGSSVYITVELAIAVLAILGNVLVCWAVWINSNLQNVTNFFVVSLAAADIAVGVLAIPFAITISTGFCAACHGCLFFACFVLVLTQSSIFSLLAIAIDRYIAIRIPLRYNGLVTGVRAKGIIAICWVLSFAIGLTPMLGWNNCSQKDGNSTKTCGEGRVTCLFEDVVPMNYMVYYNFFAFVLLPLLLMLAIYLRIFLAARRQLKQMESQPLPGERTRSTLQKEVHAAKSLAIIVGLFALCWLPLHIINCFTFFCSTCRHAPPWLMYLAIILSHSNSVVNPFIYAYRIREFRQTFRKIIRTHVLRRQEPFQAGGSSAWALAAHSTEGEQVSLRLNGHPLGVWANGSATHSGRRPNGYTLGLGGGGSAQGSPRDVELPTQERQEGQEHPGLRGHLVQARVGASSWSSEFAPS

| Compound | Ki (adenosine A-2 receptors) [nM] | A2/A1 (Adenosine A-1 receptor [2]) | also measured |
| --- | --- | --- | --- |
| CCCn1c(=O)c2nc(C(CO)Cc3ccccc3)[nH]c2n(CCC)c1=O (stereo not drawn) [3,7-dihydro-8-[1-(hydroxymethyl)-2-phenylethyl]-1,3-dipropyl-1H-purine-2,6-dione] | 3900 |  |  |
| CCCn1c(=O)c2nc(C(C)c3ccccc3)[nH]c2n(CCC)c1=O (stereo not drawn) [3,7-dihydro-8-(1-phenylethyl)-1,3-dipropyl-1H-purine-2,6-dione] | 1600 |  |  |
| CCCn1c(=O)c2[nH]c(C3Cc4ccccc4C3)nc2n(CCC)c1=O [3,7-dihydro-8-(2-indanyl)-1,3-dipropyl-1H-purine-2,6-dione] | 7100 |  |  |
| CCCn1c(=O)c2[nH]c(C(CC)c3ccccc3)nc2n(CCC)c1=O (racemic) [3,7-dihydro-8-[(±)-phenylpropyl]-1,3-dipropyl-1H-purine-2,6-dione] | 1100 | 216 | Ki (Adenosine A-1 receptor [1]): 5.1 nM |
| CCCn1c(=O)c2nc(C(CC)Cc3ccccc3)[nH]c2n(CCC)c1=O (stereo not drawn) [3,7-dihydro-8-[1-(phenylmethyl)propyl]-1,3-dipropyl-1H-purine-2,6-dione] | 71700 |  |  |
| CCCn1c(=O)c2[nH]c([C@@H](CC)c3ccccc3)nc2n(CCC)c1=O [3,7-Dihydro-8-[(S)-phenylpropyl]-1,3-dipropyl-1H-purine-2,6-dione] | 1560 | 30 | Ki (Adenosine A-1 receptor [1]): 52 nM |
| C=CCn1c(=O)c2[nH]c(C(C)c3ccccc3)nc2n(CC=C)c1=O (stereo not drawn) [3,7-dihydro-8-(1-phenylethyl)-1,3-di-2-propenyl-1H-purine-2,6-dione] | 2400 | 119 | Ki (Adenosine A-1 receptor [1]): 20 nM |
| 3,7-Dihydro-8-(1-phenylethyl-2-phenylethyl)-1,3-dipropyl-1H-purine-2,6-dione | 2600 | 37 | Ki (Adenosine A-1 receptor [3]): 71 nM |
| CCCn1c(=O)c2[nH]c(-c3ccc(OCC(=O)NCCN)cc3)nc2n(CCC)c1=O [XAC] |  |  | Ki (A-1 receptors): 1.2 ± 0.5 nM |

More lines, main results first:

| Ki (adenosine A-2 receptors) [nM] | A2/A1 (Adenosine A-1 receptor [2]) | Compound | also measured |
| --- | --- | --- | --- |
| 647 | 404 | CCCn1c(=O)c2[nH]c([C@H](CC)c3ccccc3)nc2n(CCC)c1=O [3,7-dihydro-8-[(R)-phenylpropyl]-1,3-dipropyl-1H-purine-2,6-dione] | Ki (Adenosine A-1 receptor [1]): 1.6 nM |
| 157 |  | CCCn1c(=O)c2[nH]c([C@H](C)Cc3ccccc3)nc2n(CCC)c1=O [3,7-dihydro-8-[(1R)-1-methyl-2-phenylethyl]-1,3-dipropyl-1H-purine-2,6-dione] |  |
| 608 |  | CCCC(Cc1ccccc1)c1nc2c(=O)n(CCC)c(=O)n(CCC)c2[nH]1 (racemic) [3,7-Dihydro-8-[1-(phenylmethyl)butyl]-1,3-dipropyl-1H-purine-2,6-dione] |  |
| 848 |  | CCCn1c(=O)c2nc([C@@H](C)Cc3ccccc3)[nH]c2n(CCC)c1=O [3,7-dihydro-8-[(1S)-1-methyl-2-phenylethyl]-1,3-dipropyl-1H-purine-2,6-dione] |  |
| 644 |  | CCCn1c(=O)c2[nH]c(C(C)Cc3ccccc3)nc2n(CCC)c1=O (racemic) [3,7-Dihydro-8-[(±)-1-methyl-2-phenylethyl]-1,3-dipropyl-1H-purine-2,6-dione] |  |
